Source: patent US20220308062A1, “METHODS FOR PREDICTING DRUG RESPONSIVENESS IN SAMPLES FROM CANCER SUBJECTS” (Board of Regents, The University of Texas System, priority 2019, published 2022)

How the values were obtained:
A549 cells = test: Atomic force microscopy, A549; format: cell-based, human; settings: A549, 40 nmol/L, 24 hr
Excerpt: Atomic force microscopy. […] Briefly, live cells cultured were imaged in 60 mm dishes with a Nanoscope Catalyst AFM (Bruker, Billerica, Mass.) mounted on a Nikon Ti inverted epifluorescent microscope. […] To collect the nanomechanical phenotypes of single cells immersed in culture media, 30×30 μm images were captured with a resolution of 256×256 pixels using the PeakForce Quantitative Nanomechanical Mapping (QNM) AFM (Bruker, Billerica, Mass.). For imaging, […]-AIR (Bruker, Billerica, Mass.) probes were applied with the nominal spring constant 0.4 N/m. Following the Sneddon model and the Sokolov's rules, nanomechanical parameters were calculated with Nanoscope Analysis software v.1.7 (Bruker, Billerica, Mass.) using retrace images. Images of at least 15 cells representing each tested case in three biological replicates were collected.
Atomic force microscopy (AFM). […] Briefly, live cells cultured in 60 mm dishes were imaged with a Nanoscope Catalyst AFM (Bruker) mounted on a Nikon Ti inverted epifluorescent microscope. […] To collect the nanomechanical phenotypes of single cells immersed in culture media, 30×30 μm images were captured with a resolution of 256×256 pixels using the Peak Force Quantitative Nanomechanical Mapping (QNM) AFM (Bruker). For imaging, […]-AIR probes were used with the nominal spring constant 0.4 N/m. Following the Sneddon model and the Sokolov's rules, nanomechanical parameters were calculated with Nanoscope Analysis software v.1.7 using retrace images.

A549 and H2009 cells [1] = test: Western blot analysis; format: cell-based, human; settings: H2009, traditional western blot (FIG. 8C)
Protocol: Western blot analysis. […] Cell lysates were harvested using RIPA buffer. The concentration of protein lysates was determined by Pierce™ BCA Protein Assay Kit (Thermo fisher). Forty micrograms of the total protein extracts were separated by NuPAGE™ 4-12% Bis-Tris Protein Gels (Thermo fisher) and transferred to PVDF membrane. The membrane was then blocked with 5% of Blotting-Grade Blocker (BioRad) in TBST and probed using primary antibodies including: 1) oncogenic pathways: JAK1, pSTAT3, STAT3, pAKT and pERK1/2 (Cell Signaling Technology; 3344S, 9131S, 9139T, 4060, 4377S); 2) cancer stemness markers: CD133 and ALDH1A1 (Cell Signaling Technology; 64326S and 54135S); and 3) EMT markers: Vimentin (Novus; NBP1-92687), N-cadherin, EpCAM (Abcam; ab71916) and CK8/18 (Novus; NBP2-44930); 4) loading control: GAPDH (Cell Signaling Technology; 2118S). Membrane was incubated in HRP-linked secondary antibodies following dilution with TBST (1:5000) at room temperature for one hour. Blots were developed using Western Lightning Plus-ECL Chemiluminescent Reagents (Perkin Elmer, Waltham, Mass.) and Syngene G:BOX Imaging System.

H2009 cells = test: Proliferation assay (IncuCyte ZOOM), H2009; format: cell-based; settings: Homo sapiens, NCI-H2009; read-out: IC50 from proliferation curves
Protocol: Analysis was performed using IncuCyte ZOOM (Essen BioScience) with images acquired every 3 hr for up to 72 hr. Four images (proliferation) and one image (wound healing) were captured per well for each time point. Data were normalized to controls, and values for 50% effective concentration were calculated using Prism V7.0 (GraphPad software, San Diego, Calif.).
In vitro phenotypic assay. […] Proliferation and migration curves were generated using IncuCyte ZOOM (Essen BioScience) with images acquired every 3 hr over a 72 hr timeframe. Images were captured per well for each time point. Data were normalized to controls, and values for 50% inhibitory concentration were calculated using Prism V8.0 (GraphPad software).

A549 and H2009 cells [2] = test: CyTOF profiling of lung cancer cell lines; format: cell-based, human
Protocol: Cytometry by time of flight mass spectrometry (CyTOF). Antibodies were conjugated according to the manufacturer's instructions (Fluidigm, South San Francisco, Calif.) or purchased in pre-conjugated forms from the supplier (Fluidigm). […] The cells were harvested and stained with cisplatin (Fluidigm) and metal-conjugated surface antibodies sequentially for viability and surface staining. After fixation and permeabilization, the intracellular staining with metal-conjugated antibodies was performed. The cells were then labeled with an iridium-containing DNA intercalator (^191Ir^+, ^193Ir^+) to identify cell events before analysis on a Helios mass cytometer (Fluidigm). Signals were bead-normalized using EQ Four Element Calibration Beads (Fluidigm). Signals of samples were normalized using CyTOF software (Version 6.7.1014, Fluidigm). The generated files underwent signal cleanup and filtering for live/dead cells using Cytobank (https://www.cytobank.org/, Cytobank Inc.) and download gated Flow Cytometry Standard (FCS) file for further analysis using Cytofkit based on PhenoGraph algorithm, which was implemented in R and freely available from the Bioconductor website (https://bioconductor.org/packages/cytofkit/). CyTOF data was visualized using t-distributed stochastic neighbor embedding (t-SNE) algorithm and plotted on a continuum of protein expression with phenotypically related cells clustered together.
Cytometry by time-of-flight (CyTOF). Antibodies were conjugated in-house according to the manufacturer's instructions or purchased in pre-conjugated forms from the supplier (Fluidigm; Table 5). Single cells from cell lines, tumors, or PBMCs were harvested and stained with cisplatin and metal-conjugated surface antibodies sequentially for viability and surface staining. After fixation and permeabilization, cells were stained with metal-conjugated antibodies. The cells were then labeled with an iridium-containing DNA intercalator (^191Ir^+ or ^193Ir^+) for identification of cell events before analysis on a Helios mass cytometer. Signals were bead-normalized using EQ Four Element Calibration Beads.
Signals of samples were normalized using CyTOF software (Version 6.7.1014, Fluidigm). The generated files underwent signal cleanup and filtering for single cells using Cytobank (https://www.cytobank.org/). The gated Flow Cytometry Standard (FCS) file were downloaded for further analysis using Cytofkit. The PhenoGraph clustering algorithm in Cytofkit was implemented in R from the Bioconductor website (https://bioconductor.org/packages/cytofkit/). […] Epithelial and mesenchymal indices were calculated based on the average Z-score of epithelial and mesenchymal markers. […]

## CN1CCN(Cc2ccc(Nc3ncc(Cl)c(Nc4ccccc4S(=O)(=O)N(C)C)n3)cc2)CC1 [TP-0903]
A549 cells
  decreased deformation: 25%
  increase in stiffness: 3 fold
  increased adhesion: 50%
A549 and H2009 cells [1]
  SLUG transcription factor levels: significantly decreased
H2009 cells
  IC50: 35.5 nM
A549 and H2009 cells [2]; A549, 40 nmol/L
  phosphorylated STAT3 (pSTAT3) levels (CyTOF): dramatically increased
A549 and H2009 cells [2]; A549 subpopulations #6-8, 40 nmol/L
  SMAD4 (CyTOF): suppressed
A549 and H2009 cells [2]; H2009 subpopulations #15 and 16 after treatment
  JAK1-pSTAT3 expression (CyTOF): amplified
A549 and H2009 cells [2]; cell lines, 40 nmol/L
  CD133 (CyTOF): elevated
